{"source": "the kinase profiling compilation of Christmann-Franck et al. (2016)"}
{"molecular_target": "PBK (human) (UniProt Q96KB5)", "sequence (Q96KB5 whole entry, looked up)": "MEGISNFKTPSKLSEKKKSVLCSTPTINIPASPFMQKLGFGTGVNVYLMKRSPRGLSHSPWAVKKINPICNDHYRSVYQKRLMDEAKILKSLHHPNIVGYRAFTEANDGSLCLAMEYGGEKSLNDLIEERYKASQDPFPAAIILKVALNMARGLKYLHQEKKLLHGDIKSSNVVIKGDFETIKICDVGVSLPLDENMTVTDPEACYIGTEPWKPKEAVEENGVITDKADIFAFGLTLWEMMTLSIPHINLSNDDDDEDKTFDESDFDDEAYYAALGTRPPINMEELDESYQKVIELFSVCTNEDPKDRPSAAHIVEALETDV", "assay": "radiometric filter-binding kinase assay, Kinase HotSpot", "settings": "compound 0.5 µM; ATP 10 µM", "units": {"residual activity": "%"}}
{"smiles": "CC(C)n1cnc2c(Nc3cccc(Cl)c3)nc(NCCO)nc21", "residual activity": 101}
{"smiles": "COc1cc2nccc(Oc3ccc(NC(=S)NC(=O)c4ccccc4C)cc3)c2cc1OC", "residual activity": 81.3}
{"smiles": "NC(=O)c1ccc(N(C(N)=O)c2c(F)cccc2F)nc1-c1ccc(F)cc1F", "residual activity": 110}
{"smiles": "O=c1cc(-c2cccc3c2Sc2ccccc2S3)oc(N2CCOCC2)c1", "residual activity": 99.4}
{"smiles": "CC(C)(C)c1nc2c3ccc(F)cc3c3c(=O)[nH]ccc3c2[nH]1", "residual activity": 39.1}
{"molecular_target": "MAPKAPK3 (human) (UniProt Q16644)", "sequence (Q16644 whole entry, looked up)": "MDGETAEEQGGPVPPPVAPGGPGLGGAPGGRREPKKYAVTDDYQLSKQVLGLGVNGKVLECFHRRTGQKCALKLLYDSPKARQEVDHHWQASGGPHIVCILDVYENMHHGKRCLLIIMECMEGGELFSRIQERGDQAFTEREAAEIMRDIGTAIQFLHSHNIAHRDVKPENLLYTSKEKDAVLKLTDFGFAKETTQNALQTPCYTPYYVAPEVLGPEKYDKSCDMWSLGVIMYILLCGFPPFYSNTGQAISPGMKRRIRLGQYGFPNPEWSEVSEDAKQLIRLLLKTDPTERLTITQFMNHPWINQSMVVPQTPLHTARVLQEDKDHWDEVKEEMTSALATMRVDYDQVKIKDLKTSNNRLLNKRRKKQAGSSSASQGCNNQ", "assay": "radiometric filter-binding kinase assay, Kinase HotSpot", "settings": "compound 0.5 µM; ATP 10 µM", "units": {"residual activity": "%"}}
{"smiles": "CC(C)n1cnc2c(Nc3cccc(Cl)c3)nc(NCCO)nc21", "residual activity": 91}
{"smiles": "COc1cc2nccc(Oc3ccc(NC(=S)NC(=O)c4ccccc4C)cc3)c2cc1OC", "residual activity": 102}
{"smiles": "NC(=O)c1ccc(N(C(N)=O)c2c(F)cccc2F)nc1-c1ccc(F)cc1F", "residual activity": 99.1}
{"smiles": "O=c1cc(-c2cccc3c2Sc2ccccc2S3)oc(N2CCOCC2)c1", "residual activity": 102}
{"smiles": "CC(C)(C)c1nc2c3ccc(F)cc3c3c(=O)[nH]ccc3c2[nH]1", "residual activity": 94.4}
{"molecular_target": "STK4 (human) (UniProt Q13043)", "sequence (Q13043 whole entry, looked up)": "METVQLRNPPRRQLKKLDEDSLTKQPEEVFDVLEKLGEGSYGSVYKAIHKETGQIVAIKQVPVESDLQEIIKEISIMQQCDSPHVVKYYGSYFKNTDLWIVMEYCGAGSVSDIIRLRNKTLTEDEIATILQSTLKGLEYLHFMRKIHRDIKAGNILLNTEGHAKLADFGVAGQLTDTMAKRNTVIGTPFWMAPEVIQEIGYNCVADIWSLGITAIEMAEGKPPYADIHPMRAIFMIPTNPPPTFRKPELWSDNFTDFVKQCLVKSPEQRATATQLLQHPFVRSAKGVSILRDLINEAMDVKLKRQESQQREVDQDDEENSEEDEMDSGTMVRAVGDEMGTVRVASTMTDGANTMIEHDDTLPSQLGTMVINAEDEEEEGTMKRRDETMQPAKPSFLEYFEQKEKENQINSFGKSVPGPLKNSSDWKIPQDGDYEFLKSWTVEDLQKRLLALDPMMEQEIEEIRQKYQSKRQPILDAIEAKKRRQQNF", "assay": "radiometric filter-binding kinase assay, Kinase HotSpot", "settings": "compound 0.5 µM; ATP 10 µM", "units": {"residual activity": "%"}}
{"smiles": "CC(C)n1cnc2c(Nc3cccc(Cl)c3)nc(NCCO)nc21", "residual activity": 93.1}
{"smiles": "COc1cc2nccc(Oc3ccc(NC(=S)NC(=O)c4ccccc4C)cc3)c2cc1OC", "residual activity": 95.6}
{"smiles": "NC(=O)c1ccc(N(C(N)=O)c2c(F)cccc2F)nc1-c1ccc(F)cc1F", "residual activity": 101}
{"smiles": "O=c1cc(-c2cccc3c2Sc2ccccc2S3)oc(N2CCOCC2)c1", "residual activity": 95}
{"smiles": "CC(C)(C)c1nc2c3ccc(F)cc3c3c(=O)[nH]ccc3c2[nH]1", "residual activity": 6.84}
{"molecular_target": "CAMK2A (human) (UniProt Q9UQM7)", "sequence (Q9UQM7 whole entry, looked up)": "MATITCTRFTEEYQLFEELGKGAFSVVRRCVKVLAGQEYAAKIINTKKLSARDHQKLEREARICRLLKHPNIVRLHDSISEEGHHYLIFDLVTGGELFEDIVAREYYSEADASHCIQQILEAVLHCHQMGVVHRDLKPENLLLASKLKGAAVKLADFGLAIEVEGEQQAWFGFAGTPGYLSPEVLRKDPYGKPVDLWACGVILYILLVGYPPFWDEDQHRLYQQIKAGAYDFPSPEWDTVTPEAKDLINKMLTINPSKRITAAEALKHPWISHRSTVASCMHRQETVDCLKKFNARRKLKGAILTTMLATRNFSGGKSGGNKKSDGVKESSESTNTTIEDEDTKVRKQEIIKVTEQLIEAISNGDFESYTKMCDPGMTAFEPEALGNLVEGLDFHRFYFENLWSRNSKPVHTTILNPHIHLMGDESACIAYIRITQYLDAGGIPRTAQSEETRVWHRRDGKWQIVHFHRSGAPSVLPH", "assay": "radiometric filter-binding kinase assay, Kinase HotSpot", "settings": "compound 0.5 µM; ATP 10 µM", "units": {"residual activity": "%"}}
{"smiles": "CC(C)n1cnc2c(Nc3cccc(Cl)c3)nc(NCCO)nc21", "residual activity": 99.1}
{"smiles": "COc1cc2nccc(Oc3ccc(NC(=S)NC(=O)c4ccccc4C)cc3)c2cc1OC", "residual activity": 85.6}
{"smiles": "NC(=O)c1ccc(N(C(N)=O)c2c(F)cccc2F)nc1-c1ccc(F)cc1F", "residual activity": 90.9}
{"smiles": "O=c1cc(-c2cccc3c2Sc2ccccc2S3)oc(N2CCOCC2)c1", "residual activity": 100}
{"smiles": "CC(C)(C)c1nc2c3ccc(F)cc3c3c(=O)[nH]ccc3c2[nH]1", "residual activity": 35.1}
{"molecular_target": "INSRR (human) (UniProt P14616)", "assay": "radiometric filter-binding kinase assay, Kinase HotSpot", "settings": "compound 0.5 µM; ATP 10 µM", "units": {"residual activity": "%"}}
{"smiles": "CC(C)n1cnc2c(Nc3cccc(Cl)c3)nc(NCCO)nc21", "residual activity": 82.5}
{"smiles": "COc1cc2nccc(Oc3ccc(NC(=S)NC(=O)c4ccccc4C)cc3)c2cc1OC", "residual activity": 98.2}
{"smiles": "NC(=O)c1ccc(N(C(N)=O)c2c(F)cccc2F)nc1-c1ccc(F)cc1F", "residual activity": 102}
{"smiles": "O=c1cc(-c2cccc3c2Sc2ccccc2S3)oc(N2CCOCC2)c1", "residual activity": 98.7}
{"smiles": "CC(C)(C)c1nc2c3ccc(F)cc3c3c(=O)[nH]ccc3c2[nH]1", "residual activity": 75.2}
{"molecular_target": "CDK3 CCNE1 (human) (UniProt Q00526+P24864)", "sequence (P24864 whole entry, looked up)": "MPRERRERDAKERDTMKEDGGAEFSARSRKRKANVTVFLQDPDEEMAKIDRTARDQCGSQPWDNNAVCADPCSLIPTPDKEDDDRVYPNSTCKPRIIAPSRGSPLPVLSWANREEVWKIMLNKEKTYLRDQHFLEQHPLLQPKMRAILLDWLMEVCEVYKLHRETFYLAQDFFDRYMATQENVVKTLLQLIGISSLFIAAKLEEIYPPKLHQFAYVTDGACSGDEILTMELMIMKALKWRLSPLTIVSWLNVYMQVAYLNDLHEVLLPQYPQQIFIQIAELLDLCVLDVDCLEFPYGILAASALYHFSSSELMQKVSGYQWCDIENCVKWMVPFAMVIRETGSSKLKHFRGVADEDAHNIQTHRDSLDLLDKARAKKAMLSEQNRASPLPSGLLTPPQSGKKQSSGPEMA", "sequence (Q00526 whole entry, looked up)": "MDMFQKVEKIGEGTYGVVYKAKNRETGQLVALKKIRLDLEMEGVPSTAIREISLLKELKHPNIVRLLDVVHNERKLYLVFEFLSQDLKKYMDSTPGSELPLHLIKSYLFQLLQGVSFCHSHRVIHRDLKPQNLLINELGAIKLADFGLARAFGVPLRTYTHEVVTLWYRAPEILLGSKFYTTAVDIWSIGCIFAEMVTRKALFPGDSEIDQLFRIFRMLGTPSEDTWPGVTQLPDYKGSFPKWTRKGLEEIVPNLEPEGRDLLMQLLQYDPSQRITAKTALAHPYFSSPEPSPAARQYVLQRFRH", "assay": "radiometric filter-binding kinase assay, Kinase HotSpot", "settings": "compound 0.5 µM; ATP 10 µM", "units": {"residual activity": "%"}}
{"smiles": "CC(C)n1cnc2c(Nc3cccc(Cl)c3)nc(NCCO)nc21", "residual activity": 76.9}
{"smiles": "COc1cc2nccc(Oc3ccc(NC(=S)NC(=O)c4ccccc4C)cc3)c2cc1OC", "residual activity": 86.6}
{"smiles": "NC(=O)c1ccc(N(C(N)=O)c2c(F)cccc2F)nc1-c1ccc(F)cc1F", "residual activity": 94.7}
{"smiles": "O=c1cc(-c2cccc3c2Sc2ccccc2S3)oc(N2CCOCC2)c1", "residual activity": 101}
{"smiles": "CC(C)(C)c1nc2c3ccc(F)cc3c3c(=O)[nH]ccc3c2[nH]1", "residual activity": 92.1}
{"molecular_target": "MAP3K10 (human) (UniProt Q02779)", "sequence (Q02779 whole entry, looked up)": "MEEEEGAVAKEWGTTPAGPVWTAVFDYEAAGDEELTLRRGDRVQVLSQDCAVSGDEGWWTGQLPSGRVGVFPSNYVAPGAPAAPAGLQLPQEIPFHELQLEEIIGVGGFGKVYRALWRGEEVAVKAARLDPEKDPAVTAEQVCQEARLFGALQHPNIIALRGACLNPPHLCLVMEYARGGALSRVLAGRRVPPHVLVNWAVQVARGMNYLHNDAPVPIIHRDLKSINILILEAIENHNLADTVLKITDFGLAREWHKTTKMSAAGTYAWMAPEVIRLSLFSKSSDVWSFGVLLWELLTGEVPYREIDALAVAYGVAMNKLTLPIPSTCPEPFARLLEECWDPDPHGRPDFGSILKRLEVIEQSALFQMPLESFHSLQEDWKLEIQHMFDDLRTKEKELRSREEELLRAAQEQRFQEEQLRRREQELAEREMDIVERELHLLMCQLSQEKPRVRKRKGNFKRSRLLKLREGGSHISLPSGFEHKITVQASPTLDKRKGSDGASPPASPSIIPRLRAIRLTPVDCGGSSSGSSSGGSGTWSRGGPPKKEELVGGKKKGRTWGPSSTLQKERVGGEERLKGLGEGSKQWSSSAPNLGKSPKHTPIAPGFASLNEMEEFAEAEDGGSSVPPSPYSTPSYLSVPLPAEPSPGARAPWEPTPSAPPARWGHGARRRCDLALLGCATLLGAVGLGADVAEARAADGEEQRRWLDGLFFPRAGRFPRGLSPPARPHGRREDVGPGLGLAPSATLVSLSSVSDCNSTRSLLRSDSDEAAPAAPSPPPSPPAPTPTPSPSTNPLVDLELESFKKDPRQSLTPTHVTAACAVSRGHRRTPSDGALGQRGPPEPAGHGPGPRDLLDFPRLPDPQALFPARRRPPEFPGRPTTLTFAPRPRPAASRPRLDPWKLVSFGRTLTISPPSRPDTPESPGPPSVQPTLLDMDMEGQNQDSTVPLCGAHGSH", "assay": "radiometric filter-binding kinase assay, Kinase HotSpot", "settings": "compound 0.5 µM; ATP 10 µM", "units": {"residual activity": "%"}}
{"smiles": "CC(C)n1cnc2c(Nc3cccc(Cl)c3)nc(NCCO)nc21", "residual activity": 90.3}
{"smiles": "COc1cc2nccc(Oc3ccc(NC(=S)NC(=O)c4ccccc4C)cc3)c2cc1OC", "residual activity": 91}
{"smiles": "NC(=O)c1ccc(N(C(N)=O)c2c(F)cccc2F)nc1-c1ccc(F)cc1F", "residual activity": 104}
{"smiles": "O=c1cc(-c2cccc3c2Sc2ccccc2S3)oc(N2CCOCC2)c1", "residual activity": 95.9}
{"smiles": "CC(C)(C)c1nc2c3ccc(F)cc3c3c(=O)[nH]ccc3c2[nH]1", "residual activity": 89.7}
{"molecular_target": "KIT (human) (UniProt P10721)", "sequence (P10721 whole entry, looked up)": "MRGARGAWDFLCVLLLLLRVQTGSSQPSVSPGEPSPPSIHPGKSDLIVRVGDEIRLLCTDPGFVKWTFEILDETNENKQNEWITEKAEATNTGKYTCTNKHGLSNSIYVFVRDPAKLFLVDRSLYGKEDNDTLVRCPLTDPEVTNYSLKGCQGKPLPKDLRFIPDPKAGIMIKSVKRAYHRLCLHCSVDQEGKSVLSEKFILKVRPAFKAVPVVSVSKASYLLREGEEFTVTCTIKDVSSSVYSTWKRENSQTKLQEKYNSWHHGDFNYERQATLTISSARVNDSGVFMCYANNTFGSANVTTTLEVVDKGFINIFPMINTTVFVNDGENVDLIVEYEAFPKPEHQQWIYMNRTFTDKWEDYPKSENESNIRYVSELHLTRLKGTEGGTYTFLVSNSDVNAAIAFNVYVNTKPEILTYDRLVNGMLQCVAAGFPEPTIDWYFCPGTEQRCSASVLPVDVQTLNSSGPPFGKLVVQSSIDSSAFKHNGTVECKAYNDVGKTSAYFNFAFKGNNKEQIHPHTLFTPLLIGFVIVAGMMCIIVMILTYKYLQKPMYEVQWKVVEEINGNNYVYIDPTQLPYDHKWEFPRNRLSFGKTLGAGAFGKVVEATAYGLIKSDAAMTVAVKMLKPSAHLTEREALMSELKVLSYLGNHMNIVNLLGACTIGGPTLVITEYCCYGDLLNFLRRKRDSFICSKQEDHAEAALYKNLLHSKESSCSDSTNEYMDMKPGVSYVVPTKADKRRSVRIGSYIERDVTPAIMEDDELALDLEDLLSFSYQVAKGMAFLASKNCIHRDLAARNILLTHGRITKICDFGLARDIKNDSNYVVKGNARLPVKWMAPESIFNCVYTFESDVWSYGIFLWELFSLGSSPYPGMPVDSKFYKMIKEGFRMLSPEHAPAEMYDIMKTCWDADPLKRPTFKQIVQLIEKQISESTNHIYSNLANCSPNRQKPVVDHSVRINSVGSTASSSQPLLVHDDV", "assay": "radiometric filter-binding kinase assay, Kinase HotSpot", "settings": "compound 0.5 µM; ATP 10 µM", "units": {"residual activity": "%"}}
{"smiles": "CC(C)n1cnc2c(Nc3cccc(Cl)c3)nc(NCCO)nc21", "residual activity": 76.3}
{"smiles": "COc1cc2nccc(Oc3ccc(NC(=S)NC(=O)c4ccccc4C)cc3)c2cc1OC", "residual activity": 34.5}
{"smiles": "NC(=O)c1ccc(N(C(N)=O)c2c(F)cccc2F)nc1-c1ccc(F)cc1F", "residual activity": 97.7}
{"smiles": "O=c1cc(-c2cccc3c2Sc2ccccc2S3)oc(N2CCOCC2)c1", "residual activity": 96.8}
{"smiles": "CC(C)(C)c1nc2c3ccc(F)cc3c3c(=O)[nH]ccc3c2[nH]1", "residual activity": 96.1}
{"molecular_target": "STK33 (human) (UniProt Q9BYT3)", "assay": "radiometric filter-binding kinase assay, Kinase HotSpot", "settings": "compound 0.5 µM; ATP 10 µM", "units": {"residual activity": "%"}}
{"smiles": "CC(C)n1cnc2c(Nc3cccc(Cl)c3)nc(NCCO)nc21", "residual activity": 68.1}
{"smiles": "COc1cc2nccc(Oc3ccc(NC(=S)NC(=O)c4ccccc4C)cc3)c2cc1OC", "residual activity": 94.6}
{"smiles": "NC(=O)c1ccc(N(C(N)=O)c2c(F)cccc2F)nc1-c1ccc(F)cc1F", "residual activity": 94}
{"smiles": "O=c1cc(-c2cccc3c2Sc2ccccc2S3)oc(N2CCOCC2)c1", "residual activity": 93.3}
{"smiles": "CC(C)(C)c1nc2c3ccc(F)cc3c3c(=O)[nH]ccc3c2[nH]1", "residual activity": 53.8}
{"molecular_target": "MAPK8 (human) (UniProt P45983)", "sequence (P45983 whole entry, looked up)": "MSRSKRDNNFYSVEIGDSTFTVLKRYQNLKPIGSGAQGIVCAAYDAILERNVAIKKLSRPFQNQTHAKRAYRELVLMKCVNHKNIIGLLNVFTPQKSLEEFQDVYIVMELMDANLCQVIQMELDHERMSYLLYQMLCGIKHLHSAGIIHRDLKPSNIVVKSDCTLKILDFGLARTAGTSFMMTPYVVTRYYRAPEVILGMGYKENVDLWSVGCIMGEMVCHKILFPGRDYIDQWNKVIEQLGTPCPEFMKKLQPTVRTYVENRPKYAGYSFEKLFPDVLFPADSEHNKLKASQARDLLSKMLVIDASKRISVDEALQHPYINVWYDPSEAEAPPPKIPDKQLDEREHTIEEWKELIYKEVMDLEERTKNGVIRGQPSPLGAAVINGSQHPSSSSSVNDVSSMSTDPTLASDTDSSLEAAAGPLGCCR", "assay": "radiometric filter-binding kinase assay, Kinase HotSpot", "settings": "compound 0.5 µM; ATP 10 µM", "units": {"residual activity": "%"}}
{"smiles": "CC(C)n1cnc2c(Nc3cccc(Cl)c3)nc(NCCO)nc21", "residual activity": 94.8}
{"smiles": "COc1cc2nccc(Oc3ccc(NC(=S)NC(=O)c4ccccc4C)cc3)c2cc1OC", "residual activity": 81.3}
{"smiles": "NC(=O)c1ccc(N(C(N)=O)c2c(F)cccc2F)nc1-c1ccc(F)cc1F", "residual activity": 100}
{"smiles": "O=c1cc(-c2cccc3c2Sc2ccccc2S3)oc(N2CCOCC2)c1", "residual activity": 84}
{"smiles": "CC(C)(C)c1nc2c3ccc(F)cc3c3c(=O)[nH]ccc3c2[nH]1", "residual activity": 73.7}
{"molecular_target": "RPS6KA1 KD1 KD2 (human) (UniProt Q15418)", "assay": "radiometric filter-binding kinase assay, Kinase HotSpot", "settings": "compound 0.5 µM; ATP 10 µM", "units": {"residual activity": "%"}}
{"smiles": "CC(C)n1cnc2c(Nc3cccc(Cl)c3)nc(NCCO)nc21", "residual activity": 69.1}
